Data reported in US11445724B2, “Insecticidal compounds” (SYNGENTA PARTICIPATIONS AG, priority 2013, dated 2022).

Columns and labels:
Format in all cases: in vivo
[1] = system: Myzus persicae (Green peach aphid); assay: Myzus persicae (Green peach aphid) mortality, test compounds mixed with Sucrose solution under Parafilm; details: 120 h, 12.5 ppm in Sucrose solution, infested pea seedlings on Parafilm, mortality 5 days after infestation
[2] = system: Spodoptera littoralis (Egyptian cotton leafworm); assay: Spodoptera littoralis (Egyptian cotton leafworm) mortality, sprayed cotton leaf discs; details: foliar, 72 h, 200 ppm spray on cotton leaf discs, L1 larvae, mortality 3 DAT
[3] = system: Plutella xylostella (Diamond back moth); assay: Plutella xylostella (Diamond back moth) larval mortality, artificial diet in 24-well MTP; details: 144 h, application rate 200 ppm (concentration in well 18 ppm), L2 larvae, larval mortality after 6 days
[4] = system: Myzus persicae (Green peach aphid); assay: Myzus persicae (Green peach aphid) mortality, sprayed sunflower leaf discs; details: foliar, 144 h, 200 ppm spray on sunflower leaf discs, mixed ages, mortality 6 DAT
[5] = system: Thrips tabaci (Onion thrips); assay: Thrips tabaci (Onion thrips) mortality, sprayed sunflower leaf discs; details: foliar, 168 h, 200 ppm spray on sunflower leaf discs, mixed ages, mortality after 7 days
[6] = system: Diabrotica balteata (Corn root worm); assay: Diabrotica balteata (Corn root worm) larval mortality, artificial diet in 24-well MTP; details: 120 h, application rate 200 ppm (concentration in well 18 ppm), L2 larvae, larval mortality after 5 days

COc1c(NC(=O)c2cc(Cl)ccc2F)cccc1C(=O)Nc1c(Br)cc(C(F)(C(F)(F)F)C(F)(F)F)cc1OC(F)F [Compound 44]
≥ 80%: pest or weed control at 12.5 ppm [1] | pest or weed control at 200 ppm [2] | pest or weed control at 200 ppm [3]

COc1c(NC(=O)c2cccc(F)c2F)cccc1C(=O)Nc1c(Br)cc(C(F)(C(F)(F)F)C(F)(F)F)cc1OC(F)F [Compound 69]
≥ 80%: pest or weed control at 200 ppm [4] | pest or weed control at 200 ppm [2] | pest or weed control at 200 ppm [5] | pest or weed control at 200 ppm [6] | pest or weed control at 200 ppm [3]

CCN(C(=O)c1ccc(C)cc1)c1cccc(C(=O)Nc2c(Cl)cc(C(F)(C(F)(F)F)C(F)(F)F)cc2OC(F)F)c1OC [Compound 149]
≥ 80%: pest or weed control at 200 ppm [4] | pest or weed control at 200 ppm [2] | pest or weed control at 200 ppm [5] | pest or weed control at 200 ppm [6] | pest or weed control at 200 ppm [3]

CCN(C(=O)c1ccccc1Cl)c1cccc(C(=O)Nc2c(Br)cc(C(F)(C(F)(F)F)C(F)(F)F)cc2OC(F)F)c1OC [Compound 131]
≥ 80%: pest or weed control at 200 ppm [4] | pest or weed control at 200 ppm [2] | pest or weed control at 200 ppm [5] | pest or weed control at 200 ppm [6] | pest or weed control at 200 ppm [3]

CCN(C(=O)c1ccccc1C(F)(F)F)c1cccc(C(=O)Nc2c(Br)cc(C(F)(C(F)(F)F)C(F)(F)F)cc2OC(F)F)c1OC [Compound 140]
≥ 80%: pest or weed control at 200 ppm [4] | pest or weed control at 200 ppm [2] | pest or weed control at 200 ppm [5] | pest or weed control at 200 ppm [6] | pest or weed control at 200 ppm [3]

COc1c(NC(=O)c2ccc(F)c(C(F)(F)F)c2)cccc1C(=O)Nc1c(Br)cc(C(F)(C(F)(F)F)C(F)(F)F)cc1OC(F)F [Compound 52]
≥ 80%: pest or weed control at 200 ppm [4] | pest or weed control at 200 ppm [2] | pest or weed control at 200 ppm [5] | pest or weed control at 200 ppm [6] | pest or weed control at 200 ppm [3]

COc1c(NC(=O)c2ccccc2C(F)(F)F)cccc1C(=O)Nc1c(Br)cc(C(F)(C(F)(F)F)C(F)(F)F)cc1OC(F)F [Compound 63]
≥ 80%: pest or weed control at 200 ppm [4] | pest or weed control at 200 ppm [2] | pest or weed control at 200 ppm [5] | pest or weed control at 200 ppm [6] | pest or weed control at 200 ppm [3]

CCN(C(=O)c1ccc(F)cc1F)c1cccc(C(=O)Nc2c(Br)cc(C(F)(C(F)(F)F)C(F)(F)F)cc2OC(F)F)c1OC [Compound 143]
≥ 80%: pest or weed control at 200 ppm [4] | pest or weed control at 200 ppm [2] | pest or weed control at 200 ppm [5] | pest or weed control at 200 ppm [6] | pest or weed control at 200 ppm [3]

CCN(C(=O)c1ccccc1Cl)c1cccc(C(=O)Nc2c(Cl)cc(C(F)(C(F)(F)F)C(F)(F)F)cc2OC(F)F)c1OC [Compound 147]
≥ 80%: pest or weed control at 200 ppm [4] | pest or weed control at 200 ppm [2] | pest or weed control at 200 ppm [5] | pest or weed control at 200 ppm [6] | pest or weed control at 200 ppm [3]

COc1c(C(=O)Nc2c(Br)cc(C(F)(C(F)(F)F)C(F)(F)F)cc2OC(F)F)cccc1N(C)C(=O)c1cc[n+]([O-])cc1 [Compound 183, N-[3-[[2-bromo-6-(difluoromethoxy)-4-[1,2,2,2-tetrafluoro-1-(trifluoromethyl)ethyl]phenyl]carbamoyl]-2-methoxy-phenyl]-N-methyl-1-oxido-pyridin-1-ium-4-carboxamide]
≥ 80%: pest or weed control at 12.5 ppm [1] | pest or weed control at 200 ppm [6]
